# From patent US12403090B2, “Oral film compositions and dosage forms having precise active dissolution profiles” (Aquestive Therapeutics, Inc., priority 2018, dated 2025)
# Test: Solubility of clobazam in COSF liquid mix and oral films
# Type: physicochemical
# Conditions: API or films in 1.5 ml water; wet mass as such
# Description: An experiment was conducted to assess the solubility of clobazam in the liquid mix (pre-drying) and oral films (COSF). Oral thin films containing 10 mg and 20 mg clobazam were prepared and then dissolved in 1.5 ml water. Two other samples were evaluated—one being the active in water (without the excipients added to the composition for oral films); and second being the liquid mix for the film but tested prior to film forming (i.e., drying).
smiles,measurement,value
"CN1C(=O)CC(=O)N(c2ccccc2)c2cc(Cl)ccc21 [COSF API 10 mg, clobazam]",% Clobazam Dissolved in sample,1.576%
same,Actual Clobazam (mg/ml) in supernatant,0.11 mg/mL
